Laboratory results: patent publication US4536335A, “Carbapenem antibiotics” (Bristol-Myers Company, priority 1983, dated 1985)
Converted amounts (≈) assume the structure as drawn. Like-named read-outs stand apart in the source and are kept apart here.

Assays:
S. marcescens A20019 = assay: In vitro MIC, tube dilution; format: cell-based; settings: tube dilution, Nutrient Broth, overnight incubation at 37° C.; additional data table
P. aeruginosa A-9843A = assay: In vitro MIC, tube dilution; format: cell-based; settings: Pseudomonas aeruginosa, A9843A, Nutrient Broth, overnight incubation at 37° C., additional data table
E. coli A15119 = assay: In vitro MIC, tube dilution; format: cell-based; settings: tube dilution, Nutrient Broth, overnight incubation at 37° C.; additional data table
S. aureus A-9606 = assay: Protective effect in the intramuscular treatment of infected mice (PD50); format: in vivo; settings: Staphylococcus aureus, A9606, im; mice infected i.p. (Ex. 2: 2 × 10^9 organisms; Ex. 4 and 5: ~9 × 10^7), treated i.m. 0 and 2 h postinfection; read-out: PD50/treatment, S. aureus A-9606
Protocol: The PD50 (dose in mg/kg required to give protection to 50% of the infected mice) is indicated.
were treated i.m. with drugs 0 and 2 h postinfection.

K. pneumoniae A20468 = assay: In vitro MIC, tube dilution; format: cell-based; settings: tube dilution, Nutrient Broth, overnight incubation at 37° C.; additional data table
P. vulgaris A21559 = assay: In vitro MIC, tube dilution; format: cell-based; settings: tube dilution, Nutrient Broth, overnight incubation at 37° C.; additional data table
E. cloacae A-9656 = assay: In vitro MIC, tube dilution; format: cell-based; settings: Enterobacter cloacae, A9656, tube dilution, Nutrient Broth, overnight incubation at 37° C.; additional data table
[1] = Half-life in phosphate buffer solution; format: physicochemical; settings: 0.065 M, pH 7.4 phosphate buffer, 37° C.; listed as Fraction B
Protocol: A solution of para-nitrobenzyl 3-[2-(N-methylthiomorpholinium diphenylphosphate)ethylthio]-6α-[1'-(R)-hydroxyethyl]-7-oxo-1-azabicyclo[3.2.0]hept-2-ene-2-carboxylate (1.31 g, 1.76 mmol) in 0.1 M pH 7.4 phosphate buffer (48.8 mL), tetrahydrofuran (20 mL) and diethyl ether (20 mL) was hydrogenated over 10% pd/C (1.5 g) in a Parr shaker for 1 h at 40 psi. The reaction mixture was diluted with diethyl ether (40 mL) and the phases were separated. The organic phase was washed with water (2×5 mL). The aqueous phases were combined, filtered through a #52 hardened filter paper, washed with diethyl ether (2×20 mL) and pumped under vacuum. The aqueous solution was poured on a silica gel reverse phase column and the desired carbapenem was eluted with 5% acetonitrile-water.
To a solution of p-nitrobenzyl (5R,6S)-3-[2-(1-methylmorpholino)ethylthio]-6-[(R)-1-hydroxyethyl]-7-oxo-1-azabicyclo[3.2.0]hept-2-ene-2-carboxylate diphenylphosphate (0.360 g, 0.49 mmol) in 13 mL of phosphate buffer (0.05 M pH 7.4) was added 0.36 g of 10% palladium-on-charcoal, 20 mL of tetrahydrofuran and 20 mL of diethyl ether. This mixture was hydrogenated (Parr) at 32 psi for 1 h. The mixture was filtered through Celite and the filter pad was washed with H2 O and diethyl ether. The aqueous phase was separated and the pH was adjusted to 7.0 with additional pH 7.4 phosphate buffer. After removing residual organic solvents in vacuo the aqueous solution was applied to a C18 reverse-phase column.
To a solution of (5R,6S)paranitrobenzyl 3-[2-(1,4-dimethyl-1-piperazinium)ethylthio]-6-[1-(R)-hydroxyethyl]-7-oxo- 1-azabicyclo[3.2.0]hept-2-ene-2-carboxylate diphenylphosphate (0.47 g, 0.623 mmol) in wet tetrahydrofuran (25 mL) was added diethyl ether (25 mL), potassium phosphate monobasic-sodium hydroxide buffer (13 mL, pH 7.22) and 10% palladium on charcoal (0.47 g). The resulting mixture was hydrogenated at 23° C. under 40 psi for 1 h. The two layers were separated and the organic layer was extracted with water (2×7 mL).
To a cold (-10° C.) solution of (5R,6S)-3-[2 -(N-methyl-thiomorpholinium)ethylthio]-6-[1-(R)-hydroxyethyl]-7-oxo-1-azabicyclo(3.2.0)-hept-2-ene-2-carboxylate (608 mg, 1.65 mmol) in a 1:1 mixture of acetonitrile-water (9 mL) was added m-chloroperbenzoic acid (334.8 mg, 1.65 mmol) in small portion over a 1 hour period. The mixture was then diluted with water (15 mL) and washed with diethyl ether (3×15 mL).
A mixture of (5R,6S) paranitrobenzyl 3-[2-(1,4,4-trimethyl-1-piperazinium)ethylthio]-6-[1R-hydroxyethyl]-7-oxo- 1-azabicyclo(3.2.0)hept-2-ene-2-carboxylate bischloride (0.40 g, 0.68 mmol), phosphate buffer (30 mL, 0.05M, pH 7.0), tetrahydrofuran (10 mL), ether (30 mL) and 10% palladium on charcoal (0.40 g) was hydrogenated at 23° C. under 35 psi for 1 h. The two phases were separated. The organic phase was extracted with water (10 mL).

P. mirabilis A-9900 = assay: In vitro MIC, tube dilution; format: cell-based; settings: Proteus mirabilis, A9900, tube dilution, Nutrient Broth, overnight incubation at 37° C.; additional data table
[2] = Urinary recovery after intramuscular administration to mice; format: in vivo; settings: mouse, intramuscular dose of 20 mg/kg, 0-6 hour collection, 360 min
Protocol: Compounds were solubilized in 0.1 M phosphate buffer pH 7. Values are from a single test; 4 mice per compound.
(§1) Also shown is the urinary recovery in the mice.
***Recovery based on 0-6 hour collection

[3] = system: S. aureus A-9606 (Pen-res.); assay: In vitro MIC, tube dilution; format: cell-based; settings: Staphylococcus aureus, Nutrient Broth, overnight incubation at 37° C., additional data table, read-out: MIC S. aureus (Pen-res.) A-9606
E. cloacae A-9659 = assay: In vitro MIC, tube dilution; format: cell-based; settings: tube dilution, Nutrient Broth, overnight incubation at 37° C.; additional data table
Description: N-formimidoyl thienamycin was included as a comparison compound.

K. pneumoniae A-9664 = assay: In vitro MIC, tube dilution; format: cell-based; settings: tube dilution, Nutrient Broth, overnight incubation at 37° C.; additional data table
S. pyogenes A-9604 = assay: In vitro MIC, tube dilution; format: cell-based; settings: Streptococcus pyogenes, A9604, tube dilution, Nutrient Broth, overnight incubation at 37° C.; additional data table
S. pneumoniae A-9585 = assay: In vitro MIC, tube dilution; format: cell-based; settings: Streptococcus pneumoniae, A9585, Nutrient Broth, overnight incubation at 37° C., additional data table
P. aeruginosa A21213 = assay: In vitro MIC, tube dilution; format: cell-based; settings: Pseudomonas aeruginosa, A21213, tube dilution, Nutrient Broth, overnight incubation at 37° C.; additional data table
S. faecalis A20688 = assay: In vitro MIC, tube dilution; format: cell-based; settings: tube dilution, Nutrient Broth, overnight incubation at 37° C.; additional data table
P. morganii A15153 = assay: In vitro MIC, tube dilution; format: cell-based; settings: tube dilution, Nutrient Broth, overnight incubation at 37° C.; additional data table
E. coli A20341-1 = assay: In vitro MIC, tube dilution; format: cell-based; settings: tube dilution, Nutrient Broth, overnight incubation at 37° C.; additional data table
S. aureus A-9537 = assay: In vitro MIC, tube dilution; format: cell-based; settings: Staphylococcus aureus, overnight incubation at 37° C., additional data table
[4] = Blood levels in mice after intramuscular administration; format: in vivo; settings: mouse, intramuscular dose of 20 mg/kg; 20 mg/kg
Description: Compounds were solubilized in 0.1 M phosphate buffer pH 7. Values are fro
a single test; 4 mice used per compound.
*t1/2 refers to halflife in minutes
**AUC refers to the area under the blood concentrationtime curve
as §1
Compounds were solubilized in 0.1 M phosphate buffer, pH 7.
Values based on a single test; 4 mice per compound.
*T1/2 refers to halflife in minutes

P. rettgeri A22424 = assay: In vitro MIC, tube dilution; format: cell-based; settings: tube dilution, Nutrient Broth, overnight incubation at 37° C.; additional data table

## C[C@@H](O)[C@H]1C(=O)N2C(C(=O)[O-])=C(SCC[N+]3(C)CC[S+]([O-])CC3)C[C@H]12 (single isomer, unassigned) [Ex. 5 comp. B]
S. marcescens A20019
  MIC S. marcescens A20019: 0.25 µg/mL (≈ 0.643 µM)
P. aeruginosa A-9843A
  MIC: 63 µg/mL (≈ 162 µM)
E. coli A15119
  MIC E. coli A15119: 0.13 µg/mL (≈ 0.335 µM)
S. aureus A-9606
  ED50: 0.39 mg/kg
K. pneumoniae A20468
  MIC K. pneumoniae A20468: 0.5 µg/mL (≈ 1.29 µM)
P. vulgaris A21559
  MIC P. vulgaris A21559: 0.25 µg/mL (≈ 0.643 µM)
E. cloacae A-9656
  MIC: 0.25 µg/mL (≈ 0.643 µM)
[1]
  T 1/2 (solution stability): 10.75 h
P. mirabilis A-9900
  MIC: 0.25 µg/mL (≈ 0.643 µM)
[2]
  Urine Recovery: 15 ± 3%
[3]
  MIC: 0.06 µg/mL (≈ 0.154 µM)
E. cloacae A-9659
  MIC E. cloacae A-9659: 0.5 µg/mL (≈ 1.29 µM)
K. pneumoniae A-9664
  MIC K. pneumoniae A-9664: 0.25 µg/mL (≈ 0.643 µM)
S. pyogenes A-9604
  MIC: 0.008 µg/mL (≈ 0.0206 µM)
S. pneumoniae A-9585
  MIC: 0.004 µg/mL (≈ 0.0103 µM)
P. aeruginosa A21213
  MIC: 32 µg/mL (≈ 82.4 µM)
S. faecalis A20688
  MIC S. faecalis A20688: 1 µg/mL (≈ 2.57 µM)
P. morganii A15153
  MIC M. morganii A15153: 0.5 µg/mL (≈ 1.29 µM)
E. coli A20341-1
  MIC E. coli A20341-1: 0.13 µg/mL (≈ 0.335 µM)
S. aureus A-9537; A9537, 50% serum, tube dilution, read-out: MIC S. aureus-50% serum A-9537
  MIC: 0.06 µg/mL (≈ 0.154 µM)
S. aureus A-9537; A9537, tube dilution, Nutrient Broth, read-out: MIC S. aureus A-9537
  MIC: 0.03 µg/mL (≈ 0.0772 µM)
[4]
  Blood AUC: 4600 ng·h/mL
  Blood Cmax: 12600 ng/mL
  Blood T1/2: 0.167 h
P. rettgeri A22424
  MIC P. rettgeri A22424: 1 µg/mL (≈ 2.57 µM)
